Data reported in patent US20260097056A1, “SYK ACTIVATORS AND INHIBITORS IN NEURODEGENERATIVE DISEASES” (University of Virginia Patent Foundation, priority 2022, published 2026).

What was measured:
[1] = test system: bone marrow-derived macrophages (BMDMs); experiment: In vitro Aβ phagocytosis assay (CypHer5E-tagged Aβ oligomers, flow cytometry); type: cell-based, mouse; conditions: SYK-deficient (Syk^fl/fl LysM^Cre) BMDMs; 10 μM Tideglusib 1 hour before 10 μM CypHer5E-tagged Aβ oligomers; read 24 hours later; vs vehicle
Method: Monomerization of Aβ (1-42) (641-15, California peptide) was achieved using a previously published protocol (Stine et al., 2011), using hexafluoroisopropanol (HFIP) (52517, Sigma-Aldrich). 5 mM monomeric Aβ samples were incubated for 24 hours at 4° C. in F12 media to make a 200 μM stock of oligomeric Aβ. Samples were then incubated with CypHer5E-NHS ester (PA15401, […]) diluted in 0.1 M sodium bicarbonate for 30 minutes covered and at room temperature. Following incubation, Biospin columns (7326227, Bio-Rad) were used to […] unbound dye. CypHer5E-tagged Aβ oligomers were stored at 4° C. prior to BMDM treatment. Bone marrow-derived macrophages (BMDMs) were isolated from the hindlimbs of WT and Syk^fl/fl LysM^Cre mice. Marrow-containing bones were sprayed with 70% ethanol before being placed in IMDM (Thermo Fisher, 12440-053) containing penicillin/streptomycin (P/S) (Thermo Fisher, 15140163). A 25-gauge needle was used to flush marrow from the bones using 20 ml of IMDM containing P/S. An 18-gauge needle was then used to triturate flushed bone marrow 5 times to make a single-cell suspension. Samples were spun down at 1500 rpm for 5 minutes at 4° C. […] 24 hours post Aβ treatment, BMDMs were then collected, and flow cytometry was used to assess CypHer5E fluorescence. […]

5xFAD mice = experiment: Intrahippocampal injection, Aβ load in hippocampus by immunofluorescence; type: in vivo; conditions: 2 μg pustulan intrahippocampal vs vehicle-injected hemisphere of the same mouse, 7 days post injection
Method: Floating brains sectioned stored in PBS+0.05% sodium azide were blocked with 2% donkey serum, 1% bovine serum albumin, 0.1% triton, 0.05% tween in PBS for 1 hour at room temperature before applying the primary antibody master mix diluted in this block overnight at 4° C. Samples were stained with anti-AB (D54D2, Cell Signaling, 1:300; or 6e10, BioLegend, 1:1000) to label plaques. To study microglial morphology and numbers, sections were stained with Iba1 (ab5076, Abcam, 1:300). To further characterize microglia, we labeled with Ki67-EF660 (SoIA15, Thermo Fisher, 1:100), anti-Clec7a (R1-8g7, Invivogen, 1:30), Tmem119 (ab209064, Abcam, 1:300), and anti-CD68 (FA-11, BioRad, 1:1000). […] Quantification of images were performed using Fiji software or Imaris software (9.5.1).
5xFAD and 5xFAD Syk^ΔMG mice were anesthetized before receiving a bilateral hippocampal injection of 2 μl of vehicle or 2 μg pustulan into the right and left hemisphere of the hippocampus (at +2 mm lateral, −2 mm posterior, and −2 mm ventral relative to the intersection of the coronal and sagittal suture (bregma) at a rate of 200 nl/min) using a stereotaxic frame (51730U, Stoelting) and nanoliter injector (NL2010MC2T, World Precision Instruments). […] Images were analyzed using Fiji software and Imaris software (9.5.1).

Molecule	Aβ phagocytosis (CypHer5E fluorescence, percent CypHer5E+ CD11b^hi F4/80^hi cells) [1]	Aβ load in injected hippocampal hemisphere (D54D2 immunofluorescence) (5xFAD mice)
O=c1sn(-c2cccc3ccccc23)c(=O)n1Cc1ccccc1 [Tideglusib]	significantly increased Aβ phagocytosis	
pustulan		decreased Aβ load
